According to US8785459B2, “Quinazoline compounds as kinase inhibitors” (Development Center for Biotechnology, priority 2011, dated 2014):

What was measured:
Type in all cases: biochemical
B-Raf = B-Raf (Homo sapiens (Human), UniProt P15056); experiment: Raf kinase assay (B-Raf), [33P] incorporation into MEK1(K97R); settings: for inhibition at 1 µM: 1.0 μM compound, read-out: B-Raf inhibition at 1.0 μM
Protocol: (§1) A. Raf Kinase Assays (B-Raf, B-raf (V600E), and C-Raf)
(§2) Inhibition of kinase activity by test compound disclosed herein was estimated by quantifying the amount of [^33P] incorporation of substrate in the presence of test compound. Standard assay conditions were 2 ng of recombinant C-Raf or 5 ng of recombinant B-Raf or 5 ng of recombinant B-Raf (V600E) kinase (Upstate Biotechnology) with 500 ng MEK1(K97R) in assay buffer {8 μM ATP, 0.5 μCi [^33P]ATP (specific activity 3000 Ci/mmol, PerkinElmer), 50 mM Tris/HCl (pH7.5), and 1 mM EGTA, 1 mM Na3VO4, 1% 2-mercaptoethanol, 0.1% Brij 35, and 0.2 mg/ml BSA} at a final volume of 25 μL. Reactions were incubated at 30° C. for 30 min and stopped by adding 3% phosphoric acid, harvested onto a 96-well GF/B UniFilter (PerkinElmer) using a unifilter harvester (PerkinElmer), and counted with a TopCount microplate scintillation counter (PerkinElmer). The IC50 values of inhibitors were determined after carrying out assays at 3-fold serially diluted concentrations of each compound in duplication. The results were analyzed using linear regression software (GraphPad Prism 4; GraphPad Software Inc.). Inhibition of B-Raf, B-raf (V600E), and C-Raf kinases by various compounds listed in Table 1 are summarized and shown in Table 3 below. IC50 value is defined as the concentration of the test compound which achieves a half-maximal inhibition of the kinase activity.

B-Raf (V600E) = B-Raf (V600E) (Homo sapiens (Human), UniProt P15056, V600E); experiment: Raf kinase assay (B-Raf (V600E)), [33P] incorporation into MEK1(K97R)
B-Raf (V600E), sequence (P15056 whole entry V600E): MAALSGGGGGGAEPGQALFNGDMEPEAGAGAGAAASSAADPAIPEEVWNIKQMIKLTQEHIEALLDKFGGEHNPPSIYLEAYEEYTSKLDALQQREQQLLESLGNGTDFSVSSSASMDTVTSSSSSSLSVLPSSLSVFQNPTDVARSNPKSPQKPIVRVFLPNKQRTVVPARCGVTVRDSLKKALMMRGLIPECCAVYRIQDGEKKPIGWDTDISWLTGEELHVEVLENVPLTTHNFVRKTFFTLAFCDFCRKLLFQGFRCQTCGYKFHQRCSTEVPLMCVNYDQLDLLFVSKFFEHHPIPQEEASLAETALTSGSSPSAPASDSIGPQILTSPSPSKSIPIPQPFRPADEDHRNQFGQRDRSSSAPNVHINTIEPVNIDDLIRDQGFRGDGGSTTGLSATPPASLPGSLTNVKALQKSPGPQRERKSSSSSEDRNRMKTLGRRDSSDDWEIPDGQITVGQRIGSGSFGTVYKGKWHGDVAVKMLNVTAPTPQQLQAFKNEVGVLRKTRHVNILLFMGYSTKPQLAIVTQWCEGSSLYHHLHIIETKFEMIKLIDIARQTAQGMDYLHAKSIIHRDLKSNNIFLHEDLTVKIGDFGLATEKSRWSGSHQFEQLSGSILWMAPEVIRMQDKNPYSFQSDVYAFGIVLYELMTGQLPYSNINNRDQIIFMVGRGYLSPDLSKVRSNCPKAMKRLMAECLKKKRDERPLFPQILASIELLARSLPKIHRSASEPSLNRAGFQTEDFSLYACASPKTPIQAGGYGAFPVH
Protocol: as §1, §2

C-Raf = C-Raf (Homo sapiens (Human), UniProt P04049); experiment: Raf kinase assay (C-Raf), [33P] incorporation into MEK1(K97R)
C-Raf, sequence (P04049 whole entry): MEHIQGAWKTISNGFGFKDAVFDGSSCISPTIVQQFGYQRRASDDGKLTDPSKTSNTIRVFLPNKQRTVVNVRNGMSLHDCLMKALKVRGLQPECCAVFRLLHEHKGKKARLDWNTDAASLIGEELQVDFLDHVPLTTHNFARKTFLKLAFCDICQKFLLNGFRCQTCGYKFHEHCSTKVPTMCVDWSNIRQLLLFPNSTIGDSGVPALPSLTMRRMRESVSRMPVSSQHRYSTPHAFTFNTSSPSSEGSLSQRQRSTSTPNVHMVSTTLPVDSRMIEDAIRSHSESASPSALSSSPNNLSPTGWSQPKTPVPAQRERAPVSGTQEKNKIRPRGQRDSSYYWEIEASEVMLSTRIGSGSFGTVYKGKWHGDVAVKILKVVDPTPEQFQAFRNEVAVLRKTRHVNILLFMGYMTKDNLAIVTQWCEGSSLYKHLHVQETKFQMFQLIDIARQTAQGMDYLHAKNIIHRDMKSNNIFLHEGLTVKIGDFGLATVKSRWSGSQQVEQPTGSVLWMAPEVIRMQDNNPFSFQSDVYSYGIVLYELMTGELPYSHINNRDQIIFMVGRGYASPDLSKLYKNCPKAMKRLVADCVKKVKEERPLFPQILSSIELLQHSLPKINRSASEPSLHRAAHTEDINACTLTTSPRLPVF
Protocol: as §1, §2

B-Raf, sequence (P15056 whole entry): as the sequence (P15056 whole entry V600E) above, with E600V counted along it

SMILES	IC50 (B-Raf) [nM]	inhibition at 1 µM (B-Raf) [%]	IC50 (B-Raf (V600E)) [nM]	IC50 (C-Raf) [nM]
COc1cc(-c2ccc3ncnc(Nc4ccc5cn[nH]c5c4)c3c2)ccc1O [Compound 39, 4-(4-(1H-indazol-6-ylamino)quinazolin-6-yl)-2-methoxyphenol]	1030	51.6	1440	3280
COc1cc(-c2ccc3ncnc(Nc4cccc(NC(=O)C(F)(F)F)c4)c3c2)ccc1O [Compound 45, 2,2,2-trifluoro-N-(3-(6-(4-hydroxy-3-methoxyphenyl)quinazolin-4-ylamino)phenyl)acetamide]	382	73.9	358	835
COc1cc(-c2ccc3ncnc(Nc4ccc(S(N)(=O)=O)cc4)c3c2)ccc1O [Compound 46, 4-(6-(4-hydroxy-3-methoxyphenyl)quinazolin-4-ylamino)benzenesulfonamide]	624	64.4	576	1960
COc1cc(-c2ccc3ncnc(Nc4cccc(F)c4)c3c2)ccc1O [Compound 52, 4-(4-(3-fluorophenylamino)quinazolin-6-yl)-2-methoxyphenol]	560	69.2	544	1300
COc1cc(-c2ccc3ncnc(Nc4ccc5nc[nH]c5c4)c3c2)ccc1O [Compound 54, 4-(4-(1H-benzo[d]imidazol-6-ylamino)quinazolin-6-yl)-2-methoxyphenol]	735	56.2	633	2570
COc1cccc(-c2ccc3ncnc(Nc4cccc(O)c4)c3c2)c1 [Compound 67, 3-(6-(3-methoxyphenyl)quinazolin-4-ylamino)phenol]	103	84.3	139	2400
Nc1ccc(-c2ccc3ncnc(Nc4cccc5[nH]ncc45)c3c2)cc1 [Compound 69, 6-(4-aminophenyl)-N-(1H-indazol-4-yl)quinazolin-4-amine]	260	75	342	957
CC(=O)Nc1ccc(-c2ccc3ncnc(Nc4cccc5[nH]ncc45)c3c2)cc1 [Compound 71, N-(4-(4-(1H-indazol-4-ylamino)quinazolin-6-yl)phenyl)acetamide]	373	77.2	393	935
CS(=O)(=O)Nc1ccc(-c2ccc3ncnc(Nc4cccc5[nH]ncc45)c3c2)cc1 [Compound 73, N-(4-(4-(1H-indazol-4-ylamino)quinazolin-6-yl)phenyl)methanesulfonamide]	366	72.5	487	1430
COc1ccc(-c2ccc3ncnc(Nc4cccc5[nH]ncc45)c3c2)cc1Cl [Compound 76, 6-(3-chloro-4-methoxyphenyl)-N-(1H-indazol-4-yl)quinazolin-4-amine]	216	86.1	240	876
COc1ccc(-c2ccc3ncnc(Nc4cccc5[nH]ncc45)c3c2)cc1C [Compound 78, N-(1H-indazol-4-yl)-6-(4-methoxy-3-methylphenyl)quinazolin-4-amine]	470	71.1	736	1860
Clc1ccc(-c2ccc3ncnc(Nc4cccc5[nH]ncc45)c3c2)cc1 [Compound 80, 6-(4-chlorophenyl)-N-(1H-indazol-4-yl)quinazolin-4-amine]	287	77.2	289	919
COc1cc(-c2ccc3ncnc(Nc4cccc5[nH]nnc45)c3c2)ccc1O [Compound 82, 4-(4-(1H-benzo[d][1,2,3]triazol-4-ylamino)quinazolin-6-yl)-2-methoxyphenol]	668	58	702	1270
c1ccc(-c2ccc3ncnc(Nc4cccc5[nH]ncc45)c3c2)cc1 [Compound 86, N-(1H-indazol-4-yl)-6-phenylquinazolin-4-amine]	201	77.8	287	597
FC(F)(F)c1cccc(-c2ccc3ncnc(Nc4cccc5[nH]ncc45)c3c2)c1 [Compound 87, N-(1H-indazol-4-yl)-6-(3-(trifluoromethyl)phenyl)quinazolin-4-amine]	356	71.3	371	844
COc1ccc(-c2ccc3ncnc(Nc4cccc5[nH]ncc45)c3c2)cc1OC [Compound 89, 6-(3,4-dimethoxyphenyl)-N-(1H-indazol-4-yl)quinazolin-4-amine]	205	80.4	259	869
CN(C)c1ccc(-c2ccc3ncnc(Nc4cccc5[nH]ncc45)c3c2)cc1 [Compound 90, 6-(4-(dimethylamino)phenyl)-N-(1H-indazol-4-yl)quinazolin-4-amine]	762	56.1	1010	4080

The remaining compounds from weak to strong by IC50 (B-Raf), led by results:

IC50 (B-Raf) [nM]	inhibition at 1 µM (B-Raf) [%]	IC50 (B-Raf (V600E)) [nM]	IC50 (C-Raf) [nM]	SMILES
1010	59.3	933	973	COc1cc(-c2ccc3ncnc(Nc4ccc5[nH]nnc5c4)c3c2)ccc1O [Compound 66, 4-(4-(1H-benzo[d][1,2,3]triazol-5-ylamino)quinazolin-6-yl)-2-methoxyphenol]
698	61.7	911	2530	COc1ccc(-c2ccc3ncnc(Nc4cccc5[nH]ncc45)c3c2)c(C)c1 [Compound 77, N-(1H-indazol-4-yl)-6-(4-methoxy-2-methylphenyl)quinazolin-4-amine]
514	69.6	557	1220	Fc1ccc(-c2ccc3ncnc(Nc4cccc5[nH]ncc45)c3c2)cc1Cl [Compound 79, 6-(3-chloro-4-fluorophenyl)-N-(1H-indazol-4-yl)quinazolin-4-amine]
489	65.3	382	685	COc1cc(-c2ccc3ncnc(Nc4cccc(NC(C)=O)c4)c3c2)ccc1O [Compound 44, N-(3-(6-(4-hydroxy-3-methoxyphenyl)quinazolin-4-ylamino)phenyl)acetamide]
463	64.1	430	1410	COc1cc(-c2ccc3ncnc(Nc4cccc(NS(C)(=O)=O)c4)c3c2)ccc1O [Compound 56, N-(3-(6-(4-hydroxy-3-methoxyphenyl)quinazolin-4-ylamino)phenyl)methanesulfonamide]
428	66.3	535	1610	O=[N+]([O-])c1cccc(-c2ccc3ncnc(Nc4cccc5[nH]ncc45)c3c2)c1 [Compound 92, N-(1H-indazol-4-yl)-6-(3-nitrophenyl)quinazolin-4-amine]
347	76.6	355	1560	CCOc1ccc(-c2ccc3ncnc(Nc4cccc5[nH]ncc45)c3c2)cc1 [Compound 93, 6-(4-ethoxyphenyl)-N-(1H-indazol-4-yl)quinazolin-4-amine]
266	82.2	349	> 10000	COc1cc(-c2cc3c(Nc4ccc(C)c(O)c4)ncnc3cc2OC)ccc1O [Compound 41, 4-(4-(3-hydroxy-4-methylphenylamino)-7-methoxyquinazolin-6-yl)-2-methoxyphenol]
249	77.4	299	630	N#Cc1ccc(-c2ccc3ncnc(Nc4cccc5[nH]ncc45)c3c2)cc1 [Compound 88, 4-(4-(1H-indazol-4-ylamino)quinazolin-6-yl)benzonitrile]
244	79.1	280	588	Fc1cccc(-c2ccc3ncnc(Nc4cccc5[nH]ncc45)c3c2)c1 [Compound 81, 6-(3-fluorophenyl)-N-(1H-indazol-4-yl)quinazolin-4-amine]
155	85.3	255	709	Fc1ccccc1-c1ccc2ncnc(Nc3cccc4[nH]ncc34)c2c1 [Compound 91, 6-(2-fluorophenyl)-N-(1H-indazol-4-yl)quinazolin-4-amine]
141	85.5	181	500	COc1cc(-c2ccc3ncnc(Nc4cccc(O)c4C)c3c2)ccc1O [Compound 53, 3-(6-(4-hydroxy-3-methoxyphenyl)quinazolin-4-ylamino)-2-methylphenol]
73.8	93.4	90	861	CS(=O)(=O)Nc1cccc(-c2ccc3ncnc(Nc4cccc(O)c4)c3c2)c1 [Compound 72, N-(3-(4-(3-hydroxyphenylamino)quinazolin-6-yl)phenyl)methanesulfonamide]
